The subject of assay [1] is CT26 colon carcinoma cells. The assay can be described thus: CT26 lung metastasis survival model, subcutaneous CDN. Type of assay: in vivo, BALB/c mice. The following applies: CT26 intravenous, 25 μg subcutaneous at base of the tail, day 1 and one week later, log-rank test, FIG. 19A. The procedure: To further assess the ability of the derivative molecules to promote anti-tumor immunity, CT26 colon carcinoma cells (2×10^5 cells in 100 μL PBS) were implanted by intravenous injection into 6-8 week old female BALB/c mice and assessed for overall survival. The CDN compounds (25 μg in a total volume of 100 μL HBSS) were administered one day post tumor implantation by subcutaneous injection into the base of the tail. Mice were boosted with an additional injection one week later for a total of two vaccinations.

The next assay relates to THP1-Blue™ ISG cells. The assay can be described thus: Type I interferon induction in THP1-Blue ISG reporter cells (QUANTI-Blue, A655). Type of assay: cell-based, human. The following applies: for IFN-β levels: 50 μM for 30 minutes, supernatants after overnight incubation, FIG. 10. The procedure: To determine the relative level of type I interferon induced in human cells by each of the native and derivative molecules as a signature of adjuvant potency, 4×10^5 THP1-Blue™ ISG cells (a human monocyte cell line transfected with an IRF-inducible secreted embryonic alkaline phosphatase reporter gene (Invivogen) which express alkaline phosphatase under the control of a promoter comprised of five IFN-stimulated response elements) were incubated with 100 μM of cyclic [G(3′,5′)pG(3′,5′)p] (CDG), cyclic [G(2′,5′)pG(3′,5′)p] (mixed linkage, or ML-CDG), or HBSS for 30 minutes at 37° C. with 5% CO2. After 30 minutes, cells were washed and plated in 96-well dish in RPMI media containing 10% FBS, and incubated at 37° C. with 5% CO2. Cell culture supernatants from each sample were collected after overnight incubation, and 20 μL of the cell culture supernatants was added to 180 μL QUANTI-Blue reagent (Invivogen) and incubated for 45 minutes to evaluate type I interferon protein levels. Readings at Absorbance 655 nm were taken every 3 minutes using a Versa Max kinetic spectrophotometer (Molecular Diagnostics).
[…]. After 30 minutes, cells were washed and plated in 96-well dish in RPMI media containing 10% FBS, and incubated at 37° C. with 5% CO2. Cell culture supernatants from each sample were collected after overnight incubation, and 20 μL of the cell culture supernatants was added to 180 μL QUANTI-Blue reagent (Invivogen) and incubated for 45 minutes. Readings at Absorbance 655 nm were taken at 15 minutes using a SpectraMax spectrophotometer (Molecular Diagnostics).
The induction of type I interferon in human cells was measured to evaluate the potency of untreated and phosphodiesterase-treated oxo, Rp monothio and Rp, Rp dithio derivatives. […]. After 30 minutes, cells were washed and plated in a 96-well dish in RPMI media containing 10% FBS, and incubated at 37° C. with 5% CO2. Cell culture supernatants from each sample were collected after 16 hr incubation, and 20 μL of the cell culture supernatants was added to 180 μL QUANTI-Blue reagent (Invivogen) and incubated for 25 minutes to evaluate type I interferon protein levels. Readings at Absorbance 655 nm were measured with a Versa Max spectrophotometer (Molecular Diagnostics).

In assay [2] the test system is B16 melanoma cells. In words: B16 melanoma tumor model in STING-deficient mice, intratumoral CDN. It is filed as in vivo, goldenticket STING−/− mice. The following applies: ML RR-CDG 25 μg, ML RR-CDA 50 μg, CpG 1668 50 μg, three injections, FIG. 20B. The procedure:
(§1) To determine whether the effects of the derivative molecules are STING-dependent, B16 melanoma cells (5×10^4 cells in 100 μL PBS) were implanted on the right flanks of 6-8 week old female goldenticket STING^−/− mice, or wild-type C57BL/6 control mice (5 mice per group). Treatments began when tumors reached a volume of approximately 75 mm^3, on day 14 post tumor implantation. The compounds administered were Rp, Rp dithio cyclic [G(2′,5′)pG(3′,5′)p] (ML RR-CDG) (25 μg in a total volume of 40 μL HBSS), Rp, Rp dithio cyclic [A(2′,5′)pA(3′,5′)p] (ML RR-CDA) (50 μg in a total volume of 40 μL HBSS), the TLR9 agonist CpG 1668 (50 μg in a total volume of 40 μL HBSS), or HBSS vehicle control. Mice were treated by subcutaneous injection into the center of tumor only using a 27 gauge needle. Injections were repeated every three days, for a total of three intratumoral injections.

In assay [3] the test system is B16 melanoma cells. The assay can be described thus: B16 melanoma subcutaneous tumor model, intratumoral CDN. It is filed as in vivo, C57BL/6 mice. The following applies: 25 μg intratumoral, three injections, FIG. 18; for anti-tumor efficacy (tumor volume): every three days. The method, then: To assess the ability of the derivative molecules to promote anti-tumor immunity, B16 melanoma cells (5×10^4 cells in 100 μL PBS) were implanted subcutaneously on the lower back of 6-8 week old female C57BL/6 mice (8 mice per group). Treatments began when tumors reached a volume of approximately 75 mm^3, on day 14 post tumor implantation. The CDN compounds were administered (25 μg in a total volume of 40 μL HBSS) by subcutaneous injection into the center of the tumor using a 27 gauge needle. Injections were repeated every three days, for a total of three intratumoral injections. The CDNs tested were cyclic [G(3′,5′)pG(3′,5′)p] (CDG); cyclic [G(2′,5′)pG(3′,5′)p] (mixed linkage, or ML CDG); Rp, Rp dithio cyclic [G(2′,5′)pG(3′,5′)p] (ML RR-CDG); cyclic [A(3′,5′)pA(3′,5′)p] (CDA); cyclic [A(2′,5′)pA(3′,5′)p] (mixed linkage, or ML CDA); and Rp, Rp dithio cyclic [A(2′,5′)pA(3′,5′)p] (ML RR-CDA).
as §1

Consider `Nc1ncnc2c1ncn2[C@@H]1O[C@@H]2COP(O)(=S)O[C@@H]3C(O)[C@@H](COP(O)(=S)O[C@H]2[C@H]1O)O[C@H]3n1cnc2c(N)ncnc21` (some centres unmarked) [ML RR-CDA, dithio-[RP, RP]-cyclic-[A(2′,5′)pA(3′,5′)p]], for which, in assay [1], the survival rates entry was “significantly higher survival rates compared to the cyclic [A(2′,5′)pA(3′,5′)p] (ML CDA) molecule”. Besides, in the assay on THP1-Blue™ ISG cells, the IFN-β levels entry is recorded as “significantly higher IFN-β levels that either the unmodified CDA or ML CDA molecules”. For the same compound, the “induction of type I interferon, untreated compounds” value in the assay with THP1-Blue™ ISG cells (50 μM, mock treated, 16 hr incubation, FIG. 12) is recorded as “more potent inducers of type I interferon than the oxo”. Further, the “tumor growth in STING−/− mice” value with B16 melanoma cells [2] is reported as “not inhibited”. Also, the “anti-tumor efficacy (tumor volume)” value in the assay with B16 melanoma cells [3] is “potent anti-tumor efficacy”. Moreover, in the assay with B16 melanoma cells [3] (P=0.0004, student's t-test), the tumor rejection result was “significantly more tumor rejection than the ML CDA derivative”.

As for `Nc1nc2c(ncn2[C@@H]2O[C@@H]3CO[P@@](O)(=S)O[C@@H]4[C@H](O)[C@@H](CO[P@@](O)(=S)O[C@H]3[C@H]2O)O[C@H]4n2cnc3c(=O)[nH]c(N)nc32)c(=O)[nH]1` [ML RR-CDG, dithio-[RP,RP]-cyclic-[G(2′,5′)pG(3′,5′)p]], the survival rates entry in assay [1] is “significantly higher survival rates compared to the cyclic [G(2′,5′)pG(3′,5′)p] (ML CDG) molecule”. Besides, in the assay on THP1-Blue™ ISG cells, the IFN-β levels result was “significantly higher levels of IFN-β than the unmodified cyclic c-di-GMP (CDG) or modified CDG molecules”. In the assay with B16 melanoma cells [2], the “tumor growth in STING−/− mice” value was “not inhibited”. In the assay on B16 melanoma cells [3], the “anti-tumor efficacy (tumor volume)” value is reported as “potent anti-tumor efficacy” and the “tumor status by day 44 post tumor implantation” value is on record as “mice remained nearly tumor-free”.

For the origin of these results see patent publication US9724408B2, “Compositions and methods for activating stimulator of interferon gene-dependent signalling” (ADURO BIOTECH, INC., priority 2013, dated 2017).
